Experimental data: patent US11299480B2, “2-arylsulfonamido-N-arylacetamide derivatized STAT3 inhibitors” (University of Hawaii, priority 2017, dated 2022)
Converted amounts (≈) assume the structure as drawn.

System: not listed separately
Test: Aqueous solubility (PBS, SGF, SIF)
Settings: not given

With `C[C@H](C(=O)N(Cc1ccc(C2CCCCC2)cc1)c1ccc(C(=O)NO)cc1F)N(C)S(=O)(=O)c1c(F)c(F)c(F)c(F)c1F` [Example 38, (R)-4-(N-(4-Cyclohexylbenzyl)-2-((2,3,4,5,6-pentafluoro-N-methylphenyl)sulfonamido)propanamido)-3-fluoro-N-hydroxybenzamide] the “solubility in PBS buffer pH 7.4” value was 4.7 μg/mL.

For `C[C@H](C(=O)N(Cc1ccc(C2CCCCC2)cc1)c1ccc(C(=O)NO)cc1F)N(C)S(=O)(=O)c1c(F)c(F)c(F)c(F)c1F` [Example 38, (R)-4-(N-(4-Cyclohexylbenzyl)-2-((2,3,4,5,6-pentafluoro-N-methylphenyl)sulfonamido)propanamido)-3-fluoro-N-hydroxybenzamide], the “solubility in simulated intestinal fluid (SIF)” value was 72 µg/mL (≈ 109 µM).

Same assay, conditions: PBS buffer pH 7.4

In the case of `C[C@H](C(=O)N(Cc1ccc(C2CCCCC2)cc1)c1ccc(C(=O)NO)cc1F)N(C)S(=O)(=O)c1c(F)c(F)c(F)c(F)c1F` [Example 38, (R)-4-(N-(4-Cyclohexylbenzyl)-2-((2,3,4,5,6-pentafluoro-N-methylphenyl)sulfonamido)propanamido)-3-fluoro-N-hydroxybenzamide], the “Solubility PBS” value is reported as 4.7 micrograms/milliliter.

Same assay, conditions: simulated intestinal fluid

In the case of `C[C@H](C(=O)N(Cc1ccc(C2CCCCC2)cc1)c1ccc(C(=O)NO)cc1F)N(C)S(=O)(=O)c1c(F)c(F)c(F)c(F)c1F` [Example 38, (R)-4-(N-(4-Cyclohexylbenzyl)-2-((2,3,4,5,6-pentafluoro-N-methylphenyl)sulfonamido)propanamido)-3-fluoro-N-hydroxybenzamide], the “Solubility SIF” value is reported as 72 micrograms/milliliter.

Molecular target: Stat3 (Mus musculus, UniProt P42227)
Sequence (P42227 2-770 limits assumed): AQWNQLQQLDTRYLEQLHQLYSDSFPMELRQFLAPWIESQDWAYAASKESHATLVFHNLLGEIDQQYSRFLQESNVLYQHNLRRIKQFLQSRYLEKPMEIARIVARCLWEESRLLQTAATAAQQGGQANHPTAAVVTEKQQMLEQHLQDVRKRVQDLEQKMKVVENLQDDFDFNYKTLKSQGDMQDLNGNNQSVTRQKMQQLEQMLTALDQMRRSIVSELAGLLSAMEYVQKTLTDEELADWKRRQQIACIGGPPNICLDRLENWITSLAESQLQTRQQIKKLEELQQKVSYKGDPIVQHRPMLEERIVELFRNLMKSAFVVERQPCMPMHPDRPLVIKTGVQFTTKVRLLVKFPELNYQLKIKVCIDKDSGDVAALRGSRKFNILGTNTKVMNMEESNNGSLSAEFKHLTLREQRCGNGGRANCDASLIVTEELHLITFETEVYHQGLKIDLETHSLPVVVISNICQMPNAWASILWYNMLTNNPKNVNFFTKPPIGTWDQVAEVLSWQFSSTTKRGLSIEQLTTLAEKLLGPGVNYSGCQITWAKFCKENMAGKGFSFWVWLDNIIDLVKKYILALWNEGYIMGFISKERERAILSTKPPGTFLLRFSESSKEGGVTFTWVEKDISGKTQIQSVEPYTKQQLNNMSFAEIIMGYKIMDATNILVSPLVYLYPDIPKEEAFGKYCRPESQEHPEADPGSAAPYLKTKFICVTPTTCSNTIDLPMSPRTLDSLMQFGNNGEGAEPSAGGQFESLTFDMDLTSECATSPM
Test: not given
Format: biochemical
Settings: EMSA; read-out: IC50, inhibition of Stat3 DNA-binding activity in vitro
Method: FIG. 1. Effect of select compounds of the present invention on Stat3 DNA-binding activity in vitro. […] Positions of Stat3:DNA complexes in gel are labeled; control lanes (0) represent nuclear extracts pre-treated with 10% DMSO.
Except where indicated, nuclear extracts were pre-incubated with compound for 30 min at room temperature prior to incubation with the radiolabeled probe for 30 min at 30° C. before subjecting to EMSA analysis. Where appropriate, bands corresponding to Stat3:DNA complexes were scanned and quantified for each concentration of compound using ImageJ and plotted as percent of control (DMSO) against concentration of compound, from which the IC50 values were derived.

With `NC(=O)c1ccc(N(Cc2ccc(C3CCCCC3)cn2)C(=O)[C@H]2CCN2S(=O)(=O)c2c(F)c(F)c(F)c(F)c2F)cc1O` [Example 143, (R)—N-(4-carbamoyl-3-hydroxyphenyl)-N-((5-cyclohexylpyridin-2-yl)methyl)-1-((perfluorophenyl)sulfonyl)azetidine-2-carboxamide] the IC50 was 664 ± 167 nM.

Same assay, conditions: Stat3 DNA-binding activity in vitro; nuclear extracts pre-incubated with compound 30 min at room temperature, hSIE probe; read-out: EMSA IC50

Compared with `O=C(O)c1ccc(N(Cc2ccc(C3CCCCC3)cn2)C(=O)[C@H]2CCN2S(=O)(=O)c2c(F)c(F)c(F)c(F)c2F)c(F)c1` [Example 108, (R)-4-(N-((5-cyclohexylpyridin-2-yl)methyl)-1-((perfluorophenyl)sulfonyl)azetidine-2-carboxamido)-3-fluorobenzoic acid], `O=C(O)c1ccc(N(Cc2ccc(C3CCCC3)cn2)C(=O)[C@H]2CCN2S(=O)(=O)c2c(F)c(F)c(F)c(F)c2F)c(F)c1` [Example 124, (R)-4-(N-((5-cyclopentylpyridin-2-yl)methyl)-1-((perfluorophenyl)sulfonyl)azetidine-2-carboxamido)-3-fluorobenzoic acid] is 1.6-fold higher in IC50: 755 ± 110 nM for the first, 1180 ± 187 nM for the second.

Compared with `O=C([C@H]1CCN1S(=O)(=O)c1c(F)c(F)c(F)c(F)c1F)N(Cc1ccc(C2CCCCC2)cc1)c1ccc2nc[nH]c2c1` [Example 99, (R)—N-(M-benzo[d]imidazol-6-yl)-N-(4-cyclohexylbenzyl)-1-((perfluorophenyl)sulfonyl)azetidine-2-carboxamide], `O=C(NO)c1ccc(N(Cc2ccc(C3CCCCC3)cc2)C(=O)[C@H]2CCN2S(=O)(=O)c2c(F)c(F)c(F)c(F)c2F)cc1O` [Example 85, (R)—N-(4-cyclohexylbenzyl)-N-(3-hydroxy-4-(hydroxycarbamoyl)phenyl)-1-((perfluorophenyl)sulfonyl)azetidine-2-carboxamide] is 1.8-fold lower in IC50: 2350 ± 546 nM for the first, 1320 ± 360 nM for the second.

Compared with `CC(C)(C)c1ccc(CN(C(=O)[C@H]2CCN2S(=O)(=O)c2c(F)c(F)c(F)c(F)c2F)c2ccc(C(=O)O)c(O)c2)cc1` [Example 130, (R)-4-(N-(4-(tert-butyl)benzyl)-1-((perfluorophenyl)sulfonyl)azetidine-2-carboxamido)-2-hydroxybenzoic acid], `CC(C)(C)c1ccc(CN(C(=O)[C@H]2CCN2S(=O)(=O)c2c(F)c(F)c(F)c(F)c2F)c2ccc(C(=O)O)cc2F)cc1` [Example 131, (R)-4-(N-(4-(tert-butyl)benzyl)-1-((perfluorophenyl)sulfonyl)azetidine-2-carboxamido)-3-fluorobenzoic acid] is 1.6-fold higher in IC50: 2170 ± 298 nM for the first, 3550 ± 97 nM for the second. The first is the more potent here.

Compared with `O=C([C@H]1CCN1S(=O)(=O)c1c(F)c(F)c(F)c(F)c1F)N(Cc1cnc(C2CCCCC2)cn1)c1ccc2c(=O)[nH]cnc2c1` [Example 151, (R)—N-((5-cyclohexylpyrazin-2-yl)methyl)-N-(4-oxo-3,4-dihydroquinazolin-7-yl)-1-((perfluorophenyl)sulfonyl)azetidine-2-carboxamide], `O=C([C@H]1CCN1S(=O)(=O)c1c(F)c(F)c(F)c(F)c1F)N(Cc1ccc(C2CCCCC2)cn1)c1ccc2c(=O)[nH]ncc2c1` [Example 102, (R)—N-((5-cyclohexylpyridin-2-yl)methyl)-N-(1-oxo-1,2-dihydrophthalazin-6-yl)-1-((perfluorophenyl)sulfonyl)azetidine-2-carboxamide] is 2.2-fold lower in IC50: 1460 ± 151 nM for the first, 663 ± 182 nM for the second.

`Cc1cc(C(=O)O)cc(C)c1N(Cc1ccc(C2CCCCC2)cc1)C(=O)[C@@H](C)N(C)S(=O)(=O)c1c(F)c(F)c(F)c(F)c1F` [Example 47, (R)-4-(N-(4-cyclohexylbenzyl)-2-((2,3,4,5,6-pentafluoro-N-methylphenyl)sulfonamido)propanamido)-3,5-dimethylbenzoic acid] and `O=C(O)c1ccc(N(Cc2ccc(C3CCCCC3)cc2)C(=O)[C@H]2CCCN2S(=O)(=O)c2c(F)c(F)c(F)c(F)c2F)c(F)c1` [Example 39, (R)-4-(N-(4-cyclohexylbenzyl)-1-((perfluorophenyl)sulfonyl)pyrrolidine-2-carboxamido)-3-fluorobenzoic acid] are within error of each other in IC50: 4200 ± 700 nM for the first, 5300 ± 400 nM for the second.

`NC(=O)c1ccc(N(Cc2ccc(C3CCCCC3)cn2)C(=O)[C@H]2CCN2S(=O)(=O)c2c(F)c(F)c(F)c(F)c2F)cc1O` [Example 143, (R)—N-(4-carbamoyl-3-hydroxyphenyl)-N-((5-cyclohexylpyridin-2-yl)methyl)-1-((perfluorophenyl)sulfonyl)azetidine-2-carboxamide] and `O=C(O)c1ccc(N(Cc2ccc(C3CCCCC3)cn2)C(=O)[C@H]2CCN2S(=O)(=O)c2c(F)c(F)c(F)c(F)c2F)cc1F` [Example 116, (R)-4-(N-((5-cyclohexylpyridin-2-yl)methyl)-1-((perfluorophenyl)sulfonyl)azetidine-2-carboxamido)-2-fluorobenzoic acid] are within error of each other in IC50: 664 ± 167 nM for the first, 856 ± 112 nM for the second.

`O=C(NO)c1ccc(N(Cc2ccc(C3CCCCC3)cc2)C(=O)[C@H]2CCN2S(=O)(=O)c2c(F)c(F)c(F)c(F)c2F)c(F)c1` [Example 50, (R)—N-(4-cyclohexylbenzyl)-N-(2-fluoro-4-(hydroxycarbamoyl)phenyl)-1-((perfluorophenyl)sulfonyl)azetidine-2-carboxamide] and `O=C(NO)c1ccc(N(Cc2ccc(C3CCCCC3)cc2)C(=O)[C@H]2CCN2S(=O)(=O)c2c(F)c(F)c(F)c(F)c2F)cc1` [Example 83, (R)—N-(4-cyclohexylbenzyl)-N-(4-(hydroxycarbamoyl)phenyl)-1-((perfluorophenyl)sulfonyl)azetidine-2-carboxamide] are within 1.5-fold of each other in IC50: 1750 ± 190 nM for the first, 2510 ± 230 nM for the second.

`O=C(O)c1ccc(N(Cc2ccc(C3CCCC3)cc2)C(=O)[C@H]2CCCN2S(=O)(=O)c2c(F)c(F)c(F)c(F)c2F)cc1O` [Example 79, (R)-4-(N-(4-cyclopentylbenzyl)-1-((perfluorophenyl)sulfonyl)pyrrolidine-2-carboxamido)-2-hydroxybenzoic acid] and `O=C(O)c1ccc(N(Cc2ccc(C3CCCCC3)cc2)C(=O)[C@H]2CCCCN2S(=O)(=O)c2c(F)c(F)c(F)c(F)c2F)cc1O` [Example 32, (R)-4-(N-(4-cyclohexylbenzyl)-1-((pentafluorophenyl)sulfonyl)piperidine-2-carboxamido)-2-hydroxybenzoic acid] are within error of each other in IC50: 3600 ± 300 nM for the first, 5400 ± 1600 nM for the second.

`O=C(NO)c1cc(F)c(N(Cc2ccc(C3CCOCC3)cc2)C(=O)[C@H]2CCN2S(=O)(=O)c2c(F)c(F)c(F)c(F)c2F)cc1O` [Example 89, (R)—N-(2-fluoro-5-hydroxy-4-(hydroxycarbamoyl)phenyl)-1-((perfluorophenyl)sulfonyl)-N-(4-(tetrahydro-2H-pyran-4-yl)benzyl)azetidine-2-carboxamide] and `O=C(NO)c1ccc(N(Cc2ccc(C3CCOCC3)cc2)C(=O)[C@H]2CCN2S(=O)(=O)c2c(F)c(F)c(F)c(F)c2F)cc1O` [Example 84, (R)—N-(3-hydroxy-4-(hydroxycarbamoyl)phenyl)-1-((perfluorophenyl)sulfonyl)-N-(4-(tetrahydro-2H-pyran-4-yl)benzyl)azetidine-2-carboxamide] are within error of each other in IC50: 2110 ± 240 nM for the first, 2070 ± 120 nM for the second.

`O=C(NO)c1ccc(N(Cc2ccc(C3CCOCC3)cc2)C(=O)[C@H]2CCN2S(=O)(=O)c2c(F)c(F)c(F)c(F)c2F)cc1` [Example 87, (R)—N-(4-(hydroxycarbamoyl)phenyl)-1-((perfluorophenyl)sulfonyl)-N-(4-(tetrahydro-2H-pyran-4-yl)benzyl)azetidine-2-carboxamide] and `O=C(NO)c1ccc(N(Cc2ccc(C3CCCC3)cc2)C(=O)[C@H]2CCN2S(=O)(=O)c2c(F)c(F)c(F)c(F)c2F)cc1` [Example 88, (R)—N-(4-cyclopentylbenzyl)-N-(4-(hydroxycarbamoyl)phenyl)-1-((perfluorophenyl)sulfonyl) azetidine-2-carboxamide] are within error of each other in IC50: 2920 ± 120 nM for the first, 2250 ± 720 nM for the second.

First: COC(=O)c1ccc(N(Cc2ccc(C3CCCCC3)nc2)C(=O)[C@H]2CCN2S(=O)(=O)c2c(F)c(F)c(F)c(F)c2F)cc1O [Example 92, Methyl (R)-4-(N-((6-cyclohexylpyridin-3-yl)methyl)-1-((perfluorophenyl)sulfonyl)azetidine-2-carboxamido)-2-hydroxybenzoate]
Second: O=C(O)c1ccc(N(Cc2ccc(C3CCCCC3)cc2)C(=O)[C@H]2CCCN2S(=O)(=O)c2c(F)c(F)c(F)c(F)c2F)cc1Cl [Example 46, (R)-2-chloro-4-(N-(4-cyclohexylbenzyl)-1-((perfluorophenyl)sulfonyl)pyrrolidine-2-carboxamido)benzoic acid]
The IC50 of the first is 3.6-fold lower: 1050 ± 125 nM for the first, 3800 ± 800 nM for the second.

`O=C(O)c1ccc(N(Cc2ccc(C3CCOC3)cc2)C(=O)[C@H]2CCCN2S(=O)(=O)c2c(F)c(F)c(F)c(F)c2F)cc1O` (stereo partly drawn) [Example 29, 2-Hydroxy-4-((2R)-1-((pentafluorophenyl)sulfonyl)-N-(4-(tetrahydrofuran-3-yl)benzyl)pyrrolidine-2-carboxamido)benzoic acid] and `O=C(O)c1ccc(N(Cc2ccc(C3CCOCC3)cc2)C(=O)[C@H]2CCCN2S(=O)(=O)c2c(F)c(F)c(F)c(F)c2F)cc1O` [Example 27, (R)-2-Hydroxy-4-(1-((pentafluorophenyl)sulfonyl)-N-(4-(tetrahydro-2H-pyran-4-yl)benzyl)pyrrolidine-2-carboxamido)benzoic acid] are within error of each other in IC50: 4500 ± 1000 nM for the first, 5400 nM for the second.

System: not listed separately
Test: physchem
Settings: simulated gastric fluid (SGF), pH 1.2, simulated gastric fluid

In the case of `C[C@H](C(=O)N(Cc1ccc(C2CCCCC2)cc1)c1ccc(C(=O)NO)cc1F)N(C)S(=O)(=O)c1c(F)c(F)c(F)c(F)c1F` [Example 38, (R)-4-(N-(4-Cyclohexylbenzyl)-2-((2,3,4,5,6-pentafluoro-N-methylphenyl)sulfonamido)propanamido)-3-fluoro-N-hydroxybenzamide], the solubility is reported as 0.8 µg/mL (≈ 1.22 µM).
